This note sets out measurements from ChEMBL document CHEMBL1152627, “Structure-activity relationship of antiparasitic and cytotoxic indoloquinoline alkaloids, and their tricyclic and bicyclic analogues” (Bioorg Med Chem, 2009).

Each structure is given as a SMILES string. Structures can show the parent of a compound that is named as a salt. Active and inactive are the calls of the source. No cut-off for these calls is given here.

The test system of the first data set is Trypanosoma brucei rhodesiense. Briefly: Antitrypanosomal activity against Trypanosoma brucei rhodesiense. Type of data set: functional, organism-based. As to conditions: Trypanosoma brucei.
For orientation: IC50 means the concentration that inhibits the measured activity by half. A higher IC50 goes with lower potency. `C[n+]1ccc2c(c1)[nH]c1ccccc12` [listing 1 of 2 here] registered an IC50 of 155 µM.

In the case of `c1ccc2c(c1)cnc1[nH]ccc12`, it took 43.5 µM to reach half-maximal inhibition (IC50). This IC50 lies about 3.6-fold lower than the previous one.

`C[n+]1cc2[nH]c3ccccc3c2c2ccccc21` [ISONEOCRYPTOLEPINE HYDROCHLORIDE] showed an IC50 of 6.48 µM.

A further data set relates to Trypanosoma cruzi. Put plainly: Antitrypanosomal activity against Trypanosoma cruzi. The format is functional, organism-based. As to conditions: Trypanosoma cruzi.
As to `O=C(Cn1ccnc1[N+](=O)[O-])NCc1ccccc1` [BENZNIDAZOLE], half-maximal inhibition (IC50) was put at 1.25 µM.

Molecule `C[n+]1ccc2c(c1)[nH]c1ccccc12` [listing 1 of 2 here] displayed an IC50 above 95 µM.

On to `c1ccc2c(c1)cnc1[nH]ccc12`, for which half-maximal inhibition (IC50) required 69.6 µM.

Molecule `C[n+]1cc2[nH]c3ccccc3c2c2ccccc21` [ISONEOCRYPTOLEPINE HYDROCHLORIDE] gave an IC50 of 21 µM.

The next data set has as its system Leishmania donovani. Put plainly: Antileishmanial activity against Leishmania donovani axenic amastigotes. The format is functional, organism-based. The conditions noted are these: Leishmania donovani.
Consider `C[n+]1ccc2c(c1)[nH]c1ccccc12` [listing 1 of 2 here], for which the IC50 was 52.3 µM.

As to `c1ccc2c(c1)cnc1[nH]ccc12`, the IC50 is 30.3 µM.

On to `C[n+]1cc2[nH]c3ccccc3c2c2ccccc21` [ISONEOCRYPTOLEPINE HYDROCHLORIDE], for which half-maximal inhibition (IC50) required 75.4 µM.

The subject of a further data set is Plasmodium falciparum. Briefly: Antimalarial activity against chloroquine and pyrimethamine-resistant Plasmodium falciparum K1 by [3H]hypoxanthine incorporation assay. Type of data set: functional, organism-based. As to conditions: Plasmodium falciparum, K1.
The molecule `C[n+]1ccc2c(c1)[nH]c1ccccc12` [listing 1 of 2 here] showed an IC50 of 0.34 µM.

The molecule `c1ccc2c(c1)cnc1[nH]ccc12` had an IC50 of 23.2 µM.

`C[n+]1cc2[nH]c3ccccc3c2c2ccccc21` [ISONEOCRYPTOLEPINE HYDROCHLORIDE] registered an IC50 of 0.23 µM. Against the preceding molecule, the IC50 is about 100-fold lower.

Test system in a further data set: not listed separately
Briefly: Toxicity against rat L6 cells. Type of data set: cell-based. The conditions noted are these: rat, L6 cells.
`O=C(Cn1ccnc1[N+](=O)[O-])NCc1ccccc1` [BENZNIDAZOLE] had a concentration for half-maximal inhibition (IC50) above 90 µM.

Take `CCCCCCCCCCCCCCCCOP(=O)([O-])OCC[N+](C)(C)C` [MILTEFOSINE]: the IC50 turned out to be 58.4 µM.

The molecule `CCN(CC)CCCC(C)Nc1ccnc2cc(Cl)ccc12` (centres undefined) [CHLOROQUINE] showed an IC50 of 43.1 µM.

Take `Nc1nc(N)nc(Nc2ccc([As]3SCC(CO)S3)cc2)n1` (centres undefined) [MELARSOPROL]: the IC50 turned out to be 8.6 µM. This IC50 lies about 5-fold lower than the previous one.

In turn, `C[n+]1ccc2c(c1)[nH]c1ccccc12` [listing 1 of 2 here] gave a 50% inhibitory concentration (IC50) above 290 µM.

For `c1ccc2c(c1)cnc1[nH]ccc12`, the IC50 was found to be 119 µM.

Test system in the next data set: not listed separately
Put plainly: Inhibition of beta-hematin formation by BHIA assay. The format is functional.
Details: not given
As to `C[n+]1ccc2c(c1)[nH]c1ccccc12` [listing 2 of 2 here], the inhibition result was “inactive”.

Turning to `C[n+]1cc2[nH]c3ccccc3c2c2ccccc21` [ISONEOCRYPTOLEPINE HYDROCHLORIDE], the inhibition entry is “Active”.

A further data set deals with Nucleic Acid. Briefly: Displacement of methyl green dye from DNA. The format is nucleic-acid assay.
Details: not given
In the case of `C[n+]1ccc2c(c1)[nH]c1ccccc12` [listing 1 of 2 here], the IC50 was above 2800 µM.

For `C[n+]1cc2[nH]c3ccccc3c2c2ccccc21` [ISONEOCRYPTOLEPINE HYDROCHLORIDE], the inhibition entry was “Active”.

The subject of the next data set is Plasmodium falciparum. Briefly: Antimalarial activity against chloroquine-resistant Plasmodium falciparum W2. Type of data set: functional, organism-based.
Details: not given
Consider `Cc1nccc2c1[nH]c1ccccc12` [HARMAN], for which it took 7.1 µM to reach half-maximal inhibition (IC50).

For `CC1NCCc2c1[nH]c1ccccc21` (centres undefined) [TETRAHYDROHARMAN], the IC50 came to 7.5 µM.

The subject of the next data set is THP-1. Put plainly: Cytotoxicity in human THP1 cells. Type of data set: cell-based.
Details: not given
`Cc1nccc2c1[nH]c1ccccc12` [HARMAN] had an IC50 of 121 µM.

The molecule `CC1NCCc2c1[nH]c1ccccc21` (centres undefined) [TETRAHYDROHARMAN] displayed an IC50 of 403 µM.

A further data set deals with Plasmodium falciparum. Briefly: Antimalarial activity against chloroquine-sensitive Plasmodium falciparum FCR3/Gambia. The format is functional. As to conditions: FCR-3/Gambia.
Regarding `CCc1c2[nH]c3ccccc3c2c(OC)c[n+]1C`, the IC50 was below 1 µM.

The molecule `COc1c[n+](C)c(C)c2[nH]c3ccccc3c12` came in with an IC50 below 1 µM.

With `C=Cc1c2[nH]c3ccccc3c2c(OC)c[n+]1CC`, the IC50 was below 1 µM.

As to `COc1ccc2c3cc[n+](C)c(C)c3n(C)c2c1`, the IC50 was below 1 µM.

In the next data set the test system is FM3A. Put plainly: Cytotoxicity in mouse FM3A cells. Type of data set: cell-based.
Details: not given
In turn, `CCc1c2[nH]c3ccccc3c2c(OC)c[n+]1C` registered an IC50 above 10 µM.

Consider `COc1c[n+](C)c(C)c2[nH]c3ccccc3c12`, for which the IC50 is above 10 µM.

As for `C=Cc1c2[nH]c3ccccc3c2c(OC)c[n+]1CC`, the IC50 is above 10 µM.

On to `COc1ccc2c3cc[n+](C)c(C)c3n(C)c2c1`, for which the IC50 is above 10 µM.

Test system in a further data set: not listed separately
Briefly: Selectivity index, ratio of IC50 for mice (Mus musculus) FM3A cells to IC50 for chloroquine-sensitive Plasmodium falciparum FCR3/Gambia. Type of data set: toxicity, cell-based. As to conditions: read-out: Ratio IC50.
Regarding `Cc1c2[nH]c3ccccc3c2cc[n+]1C`, the selectivity ratio amounted to 18.

With `CCc1c2[nH]c3ccccc3c2c(OC)c[n+]1C`, the selectivity ratio is above 32.

`COc1c[n+](C)c(C)c2[nH]c3ccccc3c12`: the selectivity ratio was above 32.

`C=Cc1c2[nH]c3ccccc3c2c(OC)c[n+]1CC`: the selectivity ratio is above 32.

In the case of `COc1ccc2c3cc[n+](C)c(C)c3n(C)c2c1`, the selectivity ratio is above 32.

The subject of a further data set is Plasmodium falciparum. Put plainly: Antimalarial activity against chloroquine and pyrimethamine-resistant Plasmodium falciparum K1. Type of data set: functional, organism-based.
Details: not given
For `Cc1c2[nH]c3ccccc3c2cc[n+]1C`, it took 5.1 µM to reach half-maximal inhibition (IC50).

`C[n+]1ccc2c(c1)[nH]c1ccccc12` [NORMELINONINE F HYDROCHLORIDE] gave an IC50 of 13.6 µM.

The subject of another data set is Plasmodium falciparum. Put plainly: Antimalarial activity against Plasmodium falciparum isolates. Type of data set: functional, organism-based.
Details: not given
Molecule `C=Cc1ncc(OC)c2c1[nH]c1ccc(O)cc12` had an IC50 of 13.7 µM. This lies in the double-digit micromolar range.

Take `C=Cc1ncc(OC)c2c1[nH]c1ccccc12`: the midpoint of inhibition, the IC50, lay at 10.7 µM. The IC50 values of the last two molecules are within 1.5-fold of each other.

The subject of a further data set is Plasmodium falciparum. Put plainly: Antimalarial activity against chloroquine-sensitive Plasmodium falciparum D6. The format is functional, organism-based.
Details: not given
The molecule `Cc1nccc2c1[nH]c1ccccc12` [HARMAN] showed an IC50 of 12.1 µM.

For `CC1NCCc2c1[nH]c1ccccc21` (centres undefined) [TETRAHYDROHARMAN], half-maximal inhibition (IC50) was put at 20.1 µM.

Another data set has as its system Plasmodium berghei. Put plainly: Antimalarial activity against Plasmodium berghei ANKA infected in Swiss mice (Mus musculus) assessed as parasitaemia level at 10 mg/kg, intraperitoneally dosed for 5 consecutive days measured 4 days post infection. The conditions noted are these: route intraperitoneal.
As for `CCN(CC)CCCC(C)Nc1ccnc2cc(Cl)ccc12` (centres undefined) [CHLOROQUINE], the Activity was determined as 5.24%.

A further data set deals with Plasmodium berghei. Briefly: Antimalarial activity against Plasmodium berghei ANKA infected in Swiss mice (Mus musculus) assessed as mice (Mus musculus) survival at 10 mg/kg, intraperitoneally dosed for 5 consecutive days measured 7 days post infection. As to conditions: ip, 168 h.
Take `CCN(CC)CCCC(C)Nc1ccnc2cc(Cl)ccc12` (centres undefined) [CHLOROQUINE]: the survival at 10 mg/kg is 100%.

Another data set has as its system Plasmodium berghei. Put plainly: Antimalarial activity against Plasmodium berghei ANKA infected in Swiss mice (Mus musculus) assessed as suppression of parasitaemia at 10 mg/kg, intraperitoneally dosed for 5 consecutive days measured 4 days post infection relative to untreated control. As to conditions: route intraperitoneal.
In the case of `CCN(CC)CCCC(C)Nc1ccnc2cc(Cl)ccc12` (centres undefined) [CHLOROQUINE], the Activity stood at 86.3%.
